pIC50: −log10 of the molar value.
The compounds below were run against T1, Prostaglandin G/H synthase 2 (Homo sapiens, UniProt P35354) (assay: Inhibitory concentration for Cyclooxygenase-2 (Prostaglandin G/H synthase 2) in human whole blood).
T1 sequence (P35354 whole entry): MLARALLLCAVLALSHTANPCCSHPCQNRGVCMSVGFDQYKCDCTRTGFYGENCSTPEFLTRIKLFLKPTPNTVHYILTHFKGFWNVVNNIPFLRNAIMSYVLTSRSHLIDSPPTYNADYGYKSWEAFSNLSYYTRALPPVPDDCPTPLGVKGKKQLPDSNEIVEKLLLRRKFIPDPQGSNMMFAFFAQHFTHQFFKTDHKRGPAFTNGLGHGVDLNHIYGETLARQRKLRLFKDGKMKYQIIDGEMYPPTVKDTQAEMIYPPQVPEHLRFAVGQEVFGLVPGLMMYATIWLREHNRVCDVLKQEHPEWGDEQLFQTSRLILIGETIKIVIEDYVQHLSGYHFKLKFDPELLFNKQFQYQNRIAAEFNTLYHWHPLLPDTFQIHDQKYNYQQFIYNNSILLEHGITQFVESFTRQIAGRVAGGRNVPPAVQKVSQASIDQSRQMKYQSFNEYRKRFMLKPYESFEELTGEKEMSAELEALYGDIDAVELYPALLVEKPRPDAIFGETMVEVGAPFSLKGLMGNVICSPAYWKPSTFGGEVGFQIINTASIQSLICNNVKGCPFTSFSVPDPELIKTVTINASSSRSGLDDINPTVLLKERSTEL
Format: tissue-based
Work on `Cc1cc(=O)c(Oc2ccc(OC(F)(F)F)cc2)c(-c2ccc(S(C)(=O)=O)cc2)o1` yielded a pIC50 of 5.61. For `CS(=O)(=O)c1ccc(-c2occ(Cl)c(=O)c2-c2ccc(-c3ccccc3)c(F)c2)cc1`, the pIC50 was 4.06. With `Cc1cc(=O)c(Oc2ccc(Cl)cc2Cl)c(-c2ccc(S(C)(=O)=O)cc2)o1` the pIC50 was 5.47.

Reference: ChEMBL document CHEMBL1142830, “QSAR studies on structurally similar 2-(4-methanesulfonylphenyl)pyran-4-ones as selective COX-2 inhibitors: a Hansch approach” (Bioorg Med Chem Lett, 2005)
